Data from patent US8809341B2, “2,4-pyrimidinediamine compounds and uses as anti-proliferative agents” (Rigel Pharmaceuticals, Inc., priority 2003, dated 2014).
Each block holds one molecule with its values, some of them ahead of it.

Legend:
A549 cells = assay: in vitro antiproliferation assay, A549 (lung); type: cell-based
Outline: (§1)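 Standard in vitro antiproliferation assays on tumour cell lines, including A549 and H1299 (both lung); IC50 values determined.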

H1299 cells = assay: in vitro antiproliferation assay, H1299 (lung); type: cell-based
Outline: as §1

[1] = A549 (lung) cells, in vitro antiproliferation
[2] = H1299 (lung) cells, in vitro antiproliferation
[3] = Table 5, in vitro antiproliferation, A549 (lung) cells
[4] = Table 5, in vitro antiproliferation, H1299 (lung) cells
[5] = IC50 class against A549 (lung) tumor cells
[6] = IC50 class against H1299 (lung) tumor cells
[7] = in vitro antiproliferation, A549 (lung) cells, Table 4, compounds with no designated stereochemistry tested as racemate
[8] = in vitro antiproliferation, H1299 (lung) cells, Table 4, compounds with no designated stereochemistry tested as racemate
[9] = A549 (lung) cells, antiproliferation
[10] = H1299 (lung) cells, antiproliferation
[11] = Homo sapiens, IC50 class against A549 (lung) tumor cells
[12] = Homo sapiens, NCI-H1299, IC50 class against H1299 (lung) tumor cells

IC50 (A549 cells; [1]): ≤ 20 µM
IC50 (H1299 cells; [2]): ≤ 20 µM
SMILES: CNC(=O)COc1cccc(Nc2nc(Nc3ccc(OCCN(C)C)cc3)ncc2F)c1 [compound 694]

IC50 (A549 cells; [3]): ≤ 20 µM
IC50 (H1299 cells; [4]): ≤ 20 µM
SMILES: COc1cc(Nc2ncc(F)c(Nc3ccc4c(c3)OC(F)(F)C(F)(F)O4)n2)cc(OC)c1 [compound 532]

IC50 (A549 cells; [5]): ≤ 20 µM
IC50 (H1299 cells; [6]): ≤ 20 µM
SMILES: Cc1cc(Nc2ncc(F)c(NC3CCC3)n2)ccc1N1CCN(C)CC1 [compound 166]

IC50 (A549 cells; [7]): ≤ 20 µM
IC50 (H1299 cells; [8]): ≤ 20 µM
SMILES: COc1cc(Nc2ncc(F)c(N(C)c3ccc4c(c3)NC(=O)C(C)(C)O4)n2)cc(OC)c1 [compound 323]

IC50 (A549 cells; Table 7, in vitro antiproliferation, A549 (lung) cells): ≤ 20 µM
IC50 (H1299 cells; Table 7, in vitro antiproliferation, H1299 (lung) cells): ≤ 20 µM
SMILES: CNC(=O)c1cc2cccc(Nc3ncc(F)c(Nc4ccc5c(c4)OC(F)(F)C(F)(F)O5)n3)c2[nH]1 [compound 653]

IC50 (A549 cells; [1]): ≤ 20 µM
IC50 (H1299 cells; [2]): ≤ 20 µM
SMILES: CCOc1ccc(Nc2nc(Nc3cccc(OCC(=O)NC)c3)ncc2F)cc1 [compound 772]

IC50 (A549 cells; [9]): ≤ 20 µM
IC50 (H1299 cells; [10]): ≤ 20 µM
SMILES: CN(c1ccc(Cl)c(Cl)c1)c1nc(Nc2ccc(C(N)=O)cc2)ncc1F [compound 1030]

IC50 (A549 cells; [3]): ≤ 20 µM
IC50 (H1299 cells; [4]): ≤ 20 µM
SMILES: CNC(=O)COc1c(C)cc(Nc2ncc(F)c(Nc3ccc4c(c3)OCCO4)n2)cc1C [compound 569]

IC50 (A549 cells; [1]): ≤ 20 µM
IC50 (H1299 cells; [2]): ≤ 20 µM
SMILES: COc1cc(Nc2nc(Nc3cc(C)c(Cl)c(C)c3)ncc2F)cc(C(F)(F)F)c1 [compound 825]

IC50 (A549 cells; A549 (lung) cells): > 20 µM
IC50 (H1299 cells; H1299 (lung) cells): ≤ 20 µM
SMILES: COc1ccc(Nc2nc(Nc3ccc4c(cnn4C(C)(C)CC4CCC4)c3)ncc2F)cc1Cl [compound 1098]

IC50 (A549 cells; [5]): ≤ 20 µM
IC50 (H1299 cells; [6]): ≤ 20 µM
SMILES: Fc1cnc(Nc2cccc(-c3cnco3)c2)nc1Nc1ccc2c(c1)NCCO2 [compound 591]

IC50 (A549 cells; [9]): ≤ 20 µM
IC50 (H1299 cells; [10]): ≤ 20 µM
SMILES: COc1ccc(Nc2ncc(F)c(Nc3cccc(O)c3)n2)cc1OC [compound 969]

IC50 (A549 cells; [5]): ≤ 20 µM
IC50 (H1299 cells; [6]): ≤ 20 µM
SMILES: Cc1ccc(F)c(Nc2ncc(F)c(Nc3ccc4c(c3)OCCO4)n2)c1 [compound 1048]

IC50 (A549 cells; [5]): ≤ 20 µM
IC50 (H1299 cells; [6]): ≤ 20 µM
SMILES: CN1CCN(c2ccc(Nc3ncc(F)c(NC4CC(C)(C)N(C)C(C)(C)C4)n3)cc2)CC1 [compound 178]

IC50 (A549 cells; [5]): ≤ 20 µM
IC50 (H1299 cells; [6]): ≤ 20 µM
SMILES: Fc1cnc(Nc2cccc(N3CCOCC3)c2)nc1Nc1ccc2c(n1)NCCO2 [compound 605]

IC50 (A549 cells; [5]): ≤ 20 µM
IC50 (H1299 cells; [6]): ≤ 20 µM
SMILES: Fc1cnc(Nc2cccc(N3CCOCC3)c2)nc1NC1CCCC1 [compound 135]

IC50 (A549 cells; [5]): ≤ 20 µM
IC50 (H1299 cells; [6]): ≤ 20 µM
SMILES: CC(=O)N1CCN(c2cccc(Nc3ncc(F)c(N(C)C4CCC4)n3)c2)CC1 [compound 128]

IC50 (A549 cells; [11]): > 20 µM
IC50 (H1299 cells; [12]): > 20 µM
SMILES: CC(=O)N1CCN(c2ccc(Nc3ncc(F)c(Nc4cccc(Nc5ncc[nH]5)c4)n3)cc2)CC1 [compound 1058]

IC50 (A549 cells; [1]): ≤ 20 µM
IC50 (H1299 cells; [2]): > 20 µM
SMILES: COc1cc(Nc2ncc(F)c(Nc3ccc(OC)c(Cl)c3)n2)cc(C(F)(F)F)c1 [compound 810]

IC50 (A549 cells; [9]): ≤ 20 µM
IC50 (H1299 cells; [10]): ≤ 20 µM
SMILES: CNS(=O)(=O)c1ccc(Nc2nc(Nc3cc(OC)cc(OC)c3)ncc2F)cc1OC [compound 884]

IC50 (A549 cells; [9]): > 20 µM
IC50 (H1299 cells; [10]): ≤ 20 µM
SMILES: COc1ccc(N(C)c2nc(Nc3ccc(C)cc3)ncc2F)cc1Cl [compound 907]

IC50 (A549 cells; [3]): ≤ 20 µM
IC50 (H1299 cells; [4]): ≤ 20 µM
SMILES: CNC(=O)COc1c(C)cc(Nc2ncc(F)c(N(C)c3ccc4c(c3)OC(F)(F)C(F)(F)O4)n2)cc1C [compound 574]

IC50 (A549 cells; [9]): ≤ 20 µM
IC50 (H1299 cells; [10]): ≤ 20 µM
SMILES: COC(=O)COc1cccc(Nc2ncc(F)c(Nc3ccc(N4CCOCC4)cc3)n2)c1 [compound 989]

IC50 (A549 cells; [7]): ≤ 20 µM
IC50 (H1299 cells; [8]): > 20 µM
SMILES: CNC(=O)COc1cccc(Nc2ncc(F)c(Nc3ccc4c(c3)N(C)C(=O)CO4)n2)c1 [compound 299]

IC50 (A549 cells; [11]): ≤ 20 µM
IC50 (H1299 cells; [12]): ≤ 20 µM
SMILES: CN1CCN(c2ccc(Nc3ncc(F)c(Nc4cc(C5CC5)[nH]n4)n3)cc2Cl)CC1 [compound 212]

IC50 (A549 cells; [1]): ≤ 20 µM
IC50 (H1299 cells; [2]): ≤ 20 µM
SMILES: COc1cc(Nc2ncc(F)c(Nc3ccc(N4CCOCC4)c(Cl)c3)n2)cc(C(F)(F)F)c1 [compound 806]

IC50 (A549 cells; [9]): ≤ 20 µM
IC50 (H1299 cells; [10]): ≤ 20 µM
SMILES: Fc1cnc(Nc2cccc(-c3ncco3)c2)nc1Nc1cccc(-c2ncco2)c1 [compound 995]

IC50 (A549 cells; [7]): > 20 µM
IC50 (H1299 cells; [8]): > 20 µM
SMILES: COc1cc(Nc2ncc(F)c(Nc3ccc4c(c3)NC(=O)C(C)(C)S4(=O)=O)n2)cc(OC)c1 [compound 263]

IC50 (A549 cells; [11]): ≤ 20 µM
IC50 (H1299 cells; [12]): ≤ 20 µM
SMILES: COC(=O)N1CCN(c2ccc(Nc3ncc(F)c(Nc4cc(C(C)(C)C)[nH]n4)n3)cc2)CC1 [compound 203]

IC50 (A549 cells; [3]): ≤ 20 µM
IC50 (H1299 cells; [4]): ≤ 20 µM
SMILES: CNC(=O)c1ccc(Nc2ncc(F)c(Nc3ccc4c(c3)OCCO4)n2)cc1Cl [compound 554]

IC50 (A549 cells; [5]): ≤ 20 µM
IC50 (H1299 cells; [6]): ≤ 20 µM
SMILES: Cc1cc(Nc2ncc(F)c(NC(C)(C)C)n2)ccc1N1CCN(C)CC1 [compound 223]

IC50 (A549 cells; [1]): ≤ 20 µM
IC50 (H1299 cells; [2]): ≤ 20 µM
SMILES: COc1cc(Nc2nc(Nc3cc(OC)c(OC)c(OC)c3)ncc2F)cc(C(F)(F)F)c1 [compound 821]
